# Experiments:
# ACC = test: Phosphorylation of the AMPK target ACC (Ser79) in primary cortical neurons; type: cell-based, mouse; settings: 5 mM AICAR, increasing time intervals
# Protocol: (§1) Primary cortical neurons were isolated from brain of wt or transgenic (Mapt^tm1(EGFP)klt Tg(MAPT)8cPdav/J; Jackson Laboratory) embryos at day 14.5. Cortices were collected in DMEM (Lonza) and cells were dissociated by incubation with Trypsin/EDTA for 6.5 min at 37° C. Cells were then diluted in neurobasal medium (Gibco-BRL) containing B27 supplement (Gibco BRL). Cells were plated at a density of 4.0×10^5 onto 0.2 mg/ml poly-D-lysin (Sigma) and 2 μg/ml Laminin (Sigma) coated 12 well plates. Neurons were incubated at 37° C. with 8% CO2. One hour after seeding a complete change of medium was performed. Later on, each 96 hours half volumes of the medium were replaced by fresh medium. After 7 days in culture neurons were treated.
# Cells were incubated with the respective substances as follows: Metformin (Sigma) at final concentrations up to 2.5 mM for 1 to >24 hours, okadaic acid (Sigma) at final concentrations from 1 nM to 10 nM for 4 h, Fostricien (Sigma) at final concentration of 1 μM for 4 h and AICAR (cell signalling) at final concentration of 5 mM for 0.5-16 h. For cell treatment without insulin, medium containing B27+insulin supplement was replaced with medium containing B27-supplement without insulin 24 h before treatment. […]
# Cell pellets were homogenized in Magic-Mix (48% UREA, 15 mM Tris-HCL pH 7.5, 8.7% Glycerin, 1% SDS, 0.004% Bromphenolblue, 143 mM Mercaptoethanol), sonicated and boiled for 5 min at 95° C. […] Antibodies used in this study were purchased from the following companies: Tau-5 (Biosource), anti-human PHF pSer202 (Thermo scientific), Tau pSer356 (Biosource), Tau pSer262 (Biosource), Tau pSer396 (Sigma), Actin (Sigma), ACC (cell signalling), ACC pSer79 (cell signalling), phospho-S6 ribosomal protein pSer241/244 (cell signalling), p70S6 Kinase (cell signalling), p70S6K pThr421/pSer424 (cell signalling), mTOR (cell signalling), AMPK (cell signallling, AMPK pThr172 (cell singnaling), HRP-anti-rabbit (Amersham), HRP-anti-mouse (Dianova). The resulting bands were quantified using Imagequant5.2. […]
# tau = type: cell-based, mouse
# Protocol: as §1
# Cells were incubated with the respective substances as follows: Metformin (Sigma) at final concentrations up to 2.5 mM for 1 to >24 hours, okadaic acid (Sigma) at final concentrations from 1 nM to 10 nM for 4 h, Fostricien (Sigma) at final concentration of 1 μM for 4 h and AICAR (cell signalling) at final concentration of 5 mM for 0.5-16 h. For cell treatment without insulin, medium containing B27+insulin supplement was replaced with medium containing B27-supplement without insulin 24 h before treatment. 3 groups of 2 mice were treated with or without 5 mg/l metformin in the drinking water.
# Cell pellets were homogenized in Magic-Mix (48% UREA, 15 mM Tris-HCL pH 7.5, 8.7% Glycerin, 1% SDS, 0.004% Bromphenolblue, 143 mM Mercaptoethanol), sonicated and boiled for 5 min at 95° C. Proteins were resolved on 8 or 10% SDS gels and blotted onto PVDF-membranes (Roche). Antibodies used in this study were purchased from the following companies: Tau-5 (Biosource), anti-human PHF pSer202 (Thermo scientific), Tau pSer356 (Biosource), Tau pSer262 (Biosource), Tau pSer396 (Sigma), Actin (Sigma), ACC (cell signalling), ACC pSer79 (cell signalling), phospho-S6 ribosomal protein pSer241/244 (cell signalling), p70S6 Kinase (cell signalling), p70S6K pThr421/pSer424 (cell signalling), mTOR (cell signalling), AMPK (cell signallling, AMPK pThr172 (cell singnaling), HRP-anti-rabbit (Amersham), HRP-anti-mouse (Dianova). The resulting bands were quantified using Imagequant5.2. Statistical analyses were performed using SigmaStat software package (v 3.0, SPSS, USA). For timecourse or dose-response studies, data were analyses by one-way ANOVA with post hoc Dunnett's or Bonferonni test to accommodate for multiple comparisons. A Student's t-test was used for two-group comparisons, as appropriate.
SMILES,ACC phosphorylation (Ser79) (ACC),"phosphorylation pattern of tau (PP2A sensitive site) (tau; 5 mM AICAR, first 16 hours of treatment)","phosphorylation of tau (Ser202) (tau; AICAR, first 8 hours of treatment)",phosphorylation at Ser202 (tau; 1 μM fostriecin alone over 4 hours)
NC(=O)c1ncn([C@@H]2O[C@H](CO)[C@@H](O)[C@H]2O)c1N [AICAR],significantly increased,did not find a significant effect,did not see an effect,
C[C@@](O)(/C=C/[C@H]1CC=CC(=O)O1)[C@@H](C[C@@H](O)\C=C/C=C\C=C\CO)OP(=O)(O)O [fostriecin],,,,increased

# Source: patent publication US20120184624A1, “Treatment of Alzheimer's Disease” (priority 2010, published 2012)
